# Measured values taken from patent US20010025038A1, “Method of reducing craving in mammals” (priority 1997, published 2001).
# How the values were obtained:
# male CF-1 mice = assay: cocaine induced locomotor stimulation in mice (Example 1); type: in vivo; settings: for cocaine induced increase in locomotor activity: oral dose 20 minutes before cocaine sc; for locomotor activity, drug administered alone: oral dose, 8 minute period
# Experimental: Cocaine-produced increases in locomotor activity were blocked by D1/D5 antagonists, but not by D2/D3 antagonists unless relatively high doses were used. In this example, a selective D1/D5 antagonist, SCH 39166, and a selective D2/D3 antagonist, raclopride, were studied on cocaine induced locomotor stimulation in male CF-1 mice. The mice were given an oral dose of SCH 39166, raclopride or vehicle, followed 20 minutes later by a dose of cocaine or vehicle administered subcutaneously (sc).
# [1] = in vivo; cited from earlier work
# [2] = in vivo; cited from earlier work; remark: listed apart in the source
# [3] = test system: people who previously had exhibited a cocaine addiction; type: in vivo, humans
# Experimental: In a double-blind study, the subjects were administered placebo 10 mg of SCH39166, 25 mg of SCH 39166, or 100 mg of SCH 39166 two hours prior to an injection of […] of cocaine. Systolic and diastolic blood pressure in the individuals was measured from 2 hours prior to cocaine injection until approximately 4 hours after cocaine administration.
# In the same study, the desire to take cocaine was measured as a function of time after administration of placebo or varying doses of SCH 39166. The desire to take cocaine was measured by the Visual Analog Scale test. This test procedure is described in the British Journal of Medical Psychology, Volume 47. pp 211-218 (1974). In this test the individuals are asked to subjectively rate their feelings to take cocaine on a scale of zero-100, with zero representing no desire at all and 100 representing the strongest feelings. As may be seen in FIG. 7, the euphoric “high” following cocaine administration was lower in patients who had been pre-treated with SCH 39166, particularly a dose of 100 mg.
# Even if the compounds of this invention were effective in reducing craving to abused substances or food, individuals would be unlikely to take the craving-reducing drugs unless they had tolerable side effects. […] Therefore, usage of this compound should not be adversely affected by negative opinions of the individuals to whom the drug is administered nor should it cause stimulation following administration.
# healthy volunteers = assay: crossover d-amphetamine study in healthy volunteers; type: in vivo; settings: 100 mg pretreatment, 15 mg d-amphetamine, vs placebo
# Experimental: Similarly, in a second crossover study in healthy volunteers administered 15 mg d-amphetamine following pretreatment with 100 mg SCH 39166 or placebo, attenuation of amphetamine euphoric (FIG. 12) and dysphoric (FIG. 13) effects were also observed for SCH 39166 in comparison with the placebo.
# rodent = rodent model of food craving and relapse after food restriction; type: in vivo
# Excerpt: (§1) While not wishing to be bound by any theory, D1/D5 antagonists and/or D1/D5 partial agonists may prevent dietary relapse in the treatment of obesity by blocking the rewarding effects of dopamine at the D1/D5 sites associated with cravings.
# primate = primate model of food craving and relapse after food restriction; type: in vivo
# Excerpt: as §1
# [4] = test system: adult male rats (strain: CD); assay: bar press for food on fixed-ratio schedule FR30 (Example 3); type: in vivo
# Experimental: In this example, adult male rats (strain: CD) were trained to bar press for food on a fixed-ratio schedule of 30 (FR30). A rat had to press a bar 30 times in order to receive one 45 mg pellet of food. Each training session was 30 minutes long. The total response rate (total # of bar presses/30 minutes), i.e., the rate at which rats pressed the bar, was measured and then analyzed in animals that were initially given saline (control animals) and then doses of the D1/D5 antagonists SCH23390 or SCH39166. Each group of six animals received one dose of drug given subcutaneously in a volume of 1 ml/kg 30 minutes before the start of the session.
# ob/ob mice = assay: food intake in genetically obese ob/ob mice (Example 4); type: in vivo; settings: 3.0 mg/kg ip, p<0.02
# Experimental: Twenty four male mice of a genetically obese strain, i.e. ob/ob mice, aged 16 weeks were individually housed in Nalgene metabolism cages in a reverse light cycle room for the entire duration of the study. Mice were allowed food and water ad libitum. The mice were divided into 5 groups of 4-5 mice each based on baseline food intake and body weight. Mice were dosed intraperitoneally (ip) with vehicle, 0.003, 0.03, 0.3, or 3.0 mg/kg SCH 39166 at the onset of the dark cycle and a known mass of standard rodent chow was provided. Food consumption was measured after five hours, and another ip injection of vehicle or drug was given. Food intake was measured again at 24 hours after the initial injection. These injections and measurements were continued for 72 hours. Seventy two hour cumulative food intake was decreased 17% at 3.0 mg/kg (p<0.02).
# [5] = test system: adult male Sprague-Dawley (SD) rats; assay: NPY-stimulated food intake in rats (Example 5); type: in vivo; settings: 3 mpk ip 30 minutes before i.c.v. NPY
# Experimental: In this experiment, a baseline food intake (in grams) was measured at time intervals of 2, 4, or 24 hours following interocerebral ventricular (i.c.v.) administration of neuropeptide “Y” (NPY), a compound that stimulates an animal to consume food. A 3 μg/5 μl volume of NPY was administered to adult male Sprague-Dawley (SD) rats. On test day, three groups of rats (five rats per group) were pretreated with SCH39166 according to the following dosing schedule:
# A dose of SCH39166 was injected intraperitoneally (ip). Thirty minutes later, a […] i.c.v. injection of NPY was administered. The control animals received an ip injection of the vehicle methylcellulose. Thirty minutes later, animals received NPY ([…]). A second group received 1 mpk of SCH39166 ip, and thirty minutes later received […] of NPY. A third group of animals received 3 mpk of SCH39166 ip and thirty minutes later received […] of NPY. Food intake was measured 2 hours, 4 hours, and 24 hours following NPY administration.
# [6] = test system: cocaine-dependent patients; assay: multi-center double blind study in cocaine-dependent patients, interim analysis (Example 6); type: in vivo; settings: for Patients with Weight Loss ≧5 lb. / Weight Change: patients completing ≧28 days of treatment
# Experimental: In a multi-center double blind study an interim analysis had been conducted on approximately 160 cocaine-dependent patients who had been given daily doses of 10 mg, 25 or 100 mg of SCH39166 or of a placebo over a test period of eight weeks.
# The Body Mass Index (BMI) and the patient weight were measured at the beginning and end of the study. The BMI is determined by the weight (kg)/height^2 (meters). Patients having BMI's of 20.0-24.9 are considered to be of normal weight, while patients having BMI's over 25.0 are considered to be overweight.
# Table 1B indicates the percentage of patients with an initial BMI of 22 or less and the percentage of patients with a BMI of at least 26 who lost at least one unit of BMI.
# monkeys = monkeys administered SCH 39166; cited from earlier work
# [7] = cocaine relapse model; cited from earlier work
# [8] = up to 3 mg/k; cited from earlier work
# [9] = test system: cocaine-dependent patients; assay: multi-center double blind study in cocaine-dependent patients, interim analysis (Example 6); type: in vivo
# [10] = daily doses of 10, 25 or 100 mg over eight weeks
structure (smiles),measurement,setting,value
"CCN1CCC[C@H]1CNC(=O)c1c(O)c(Cl)cc(Cl)c1OC [raclopride, reference compound]",cocaine induced increase in locomotor activity,male CF-1 mice,only affected the cocaine induced increase in locomotor activity at relatively high doses
same,"locomotor activity, drug administered alone",male CF-1 mice,dose dependent decrease in locomotor activity
same,block of the response-reinstating effects of food reinforcement,[1],sufficient to block the response-reinstating effects of food reinforcement
O=C(CCCN1CCC(O)(c2ccc(Cl)cc2)CC1)c1ccc(F)cc1 [haloperidol],adverse side effects,[2],"significant adverse side effects, such as dysphoria, restlessness or stiffness"
"CN1CCc2cc(Cl)c(O)cc2[C@H]2c3ccccc3CC[C@@H]21 [SCH 39166, (−)- trans-6,7,7a,8,9,13b-hexahydro-3-chloro-2-hydroxy-N-methyl-5H-benzo [d]-naphtho-[2,1-b]azepine]",cocaine induced increase in locomotor activity,male CF-1 mice,blocked the cocaine induced increase in locomotor activity at all doses of cocaine tested
same,"locomotor activity, drug administered alone",male CF-1 mice,dose dependent decrease in locomotor activity
same,reduction in cocaine desire,"[3]; Visual Analog Scale, 100 mg",greatest reduction in cocaine desire
same,desire to take cocaine,"[3]; Visual Analog Scale, compared with placebo",significantly lower
same,"dysphoric effects, such as anxiety, after cocaine administration","[3]; Visual Analog Scale, pre-treated patients",lower
same,"euphoric ""high"" following cocaine administration","[3]; Visual Analog Scale, pre-treated patients, particularly a dose of 100 mg",lower
same,"""bad drug effects""",[3]; in vivo,not significantly different from the placebo
same,systolic and diastolic blood pressure elevations caused by cocaine,"[3]; in vivo, 30 mg/kg",did not adversely affect
same,amphetamine dysphoric effects,healthy volunteers,attenuation
same,amphetamine euphoric effects,healthy volunteers,attenuation
same,relapse associated with the effects of food and environmental cues associated with food,rodent,can block the relapse
same,relapse associated with the effects of food and environmental cues associated with food,primate,can block the relapse
same,bar press rate relative to saline-treated control animals,"[4]; 0.01 mpk subcutaneously 30 minutes before session, FR30",significantly reduced the bar press rate
same,response rate across doses,"[4]; SCH 23390 0.003-0.03 mpk, SCH 39166 0.001-0.3 mpk, subcutaneously",dose-related decrease in response rate until responses were eliminated at the highest dose
same,seventy two hour cumulative food intake decrease,ob/ob mice,17%
same,food intake 2 hours after NPY administration,[5],significant decrease in food intake
same,"Patients with Weight Loss ≧1 BMI UNIT, Init. BMI ≦22",[6]; 10 mg daily,2/9 (22%)
same,"Patients with Weight Loss ≧1 BMI UNIT, Init. BMI ≧26",[6]; 10 mg daily,2/10 (20%)
same,Patients with Weight Loss ≧5 lb.,[6]; 10 mg daily,27%
same,Weight Change,[6]; 10 mg daily,−1.4 pounds
same,% of Patients Abstaining from Alcohol for at Least 1 day,[6]; 10 mg dose,43%
same,% of Patients Abstaining from Alcohol for at Least 3 days,[6]; 10 mg dose,23%
same,% of Patients At Least 3 Days Since Last Cigarette,[6]; 10 mg dose,27%
same,"Patients with Weight Loss ≧1 BMI UNIT, Init. BMI ≦22",[6]; 25 mg daily,2/10 (20%)
same,"Patients with Weight Loss ≧1 BMI UNIT, Init. BMI ≧26",[6]; 25 mg daily,4/13 (30%)
same,Patients with Weight Loss ≧5 lb.,[6]; 25 mg daily,22%
same,Weight Change,[6]; 25 mg daily,−0.9 pounds
same,% of Patients Abstaining from Alcohol for at Least 3 days,[6]; 25 mg dose,31%
same,% of Patients At Least 3 Days Since Last Cigarette,[6]; 25 mg dose,19%
same,% of Patients At Least One Day Since Last Cigarette,[6]; 25 mg dose,53%
same,"Patients with Weight Loss ≧1 BMI UNIT, Init. BMI ≦22",[6]; 100 mg daily,1/6 (17%)
same,"Patients with Weight Loss ≧1 BMI UNIT, Init. BMI ≧26",[6]; 100 mg daily,10/14 (71%)
same,Patients with Weight Loss ≧5 lb.,[6]; 100 mg daily,45%
same,Weight Change,[6]; 100 mg daily,−3.3 pounds
same,% of Patients Abstaining from Alcohol for at Least 1 day,[6]; 100 mg dose,59%
same,% of Patients Abstaining from Alcohol for at Least 3 days,[6]; 100 mg dose,48%
same,% of Patients At Least 3 Days Since Last Cigarette,[6]; 100 mg dose,17%
same,% of Patients At Least One Day Since Last Cigarette,[6]; 100 mg dose,38%
same,reducing weight in the obese population,"[6]; BMI of 26 or greater, particularly at 100 mg/day",especially effective in reducing weight
same,reducing alcohol consumption,[6]; [10],effective
same,reducing cigarette smoking,[6]; [10],effective
same,reducing cocaine usage,[6]; [10],did not show efficacy
same,reducing weight,[6]; [10],effective
same,reducing cigarette smoking,[6]; low doses,efficacious in reducing cigarette smoking
same,increase in the dose of cocaine required to restore characteristic self-administration performances,monkeys,≥ 3 fold
same,attenuation of cocaine-seeking behavior,[7],able to attenuate the cocaine-seeking behavior
same,"effect on total food intake, meal size or feeding rate",[8],no effect
same,% of Patients At Least One Day Since Last Cigarette,[9]; 10 mg dose,57%
same,% of Patients Abstaining from Alcohol for at Least 1 day,[9]; 25 mg dose,41%
